Test results from BindingDB's records for doi:10.1016/s0223-5234(00)01171-5 (Clinical Research Institute of Montreal, 2000).
Where “and” joins values, the source holds several entries; their conditions need not be identical. Equal values may be shown once.

Key:
[1] = target: Delta-type opioid receptor (Mus musculus, UniProt P32300)
Mu-type opioid receptor = Mu-type opioid receptor (Cavia porcellus, UniProt P97266)
[2] = target: Kappa-type opioid receptor (Cavia porcellus, UniProt P41144)
Chain of Kappa-type opioid receptor (P41144 whole entry): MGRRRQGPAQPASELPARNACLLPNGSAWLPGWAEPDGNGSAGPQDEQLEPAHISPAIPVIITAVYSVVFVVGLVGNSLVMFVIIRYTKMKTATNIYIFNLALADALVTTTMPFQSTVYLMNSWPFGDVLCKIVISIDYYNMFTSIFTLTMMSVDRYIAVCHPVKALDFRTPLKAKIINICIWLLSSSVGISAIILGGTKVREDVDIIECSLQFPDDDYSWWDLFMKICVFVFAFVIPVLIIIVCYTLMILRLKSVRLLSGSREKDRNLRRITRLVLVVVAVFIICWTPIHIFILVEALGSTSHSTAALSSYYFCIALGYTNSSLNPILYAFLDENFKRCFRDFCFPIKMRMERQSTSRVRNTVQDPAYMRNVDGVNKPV

Chain of Delta-type opioid receptor (P32300 whole entry): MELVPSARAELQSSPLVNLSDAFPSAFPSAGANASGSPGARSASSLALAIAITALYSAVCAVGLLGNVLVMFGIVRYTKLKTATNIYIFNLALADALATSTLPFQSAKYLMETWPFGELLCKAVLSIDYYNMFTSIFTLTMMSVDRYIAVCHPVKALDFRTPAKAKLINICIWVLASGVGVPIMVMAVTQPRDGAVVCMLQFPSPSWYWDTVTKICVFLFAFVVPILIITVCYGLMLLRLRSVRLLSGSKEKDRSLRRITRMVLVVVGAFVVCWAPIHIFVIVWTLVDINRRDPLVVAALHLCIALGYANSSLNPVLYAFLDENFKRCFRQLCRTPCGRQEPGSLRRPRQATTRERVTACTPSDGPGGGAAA
Chain of Mu-type opioid receptor (P97266 whole entry): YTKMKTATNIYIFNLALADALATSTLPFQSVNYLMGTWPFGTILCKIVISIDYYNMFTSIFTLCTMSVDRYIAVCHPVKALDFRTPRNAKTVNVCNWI

Row | Structure (SMILES) | Ki [1] | Ki (Mu-type opioid receptor) [nM] | Ki [2] [nM]
1 | Cc1cc(O)cc(C)c1C[C@H](N)C(=O)N[C@H](CCCN=C(N)N)C(=O)N[C@@H](Cc1ccccc1)C(=O)N[C@@H](CCCN)C(N)=O [Dmt-d-Arg-Phe-Orn-NH2] | 1240 nM | 0.151 | 26.3
2 | Cc1cc(O)cc(C)c1C[C@H](N)C(=O)N[C@H](CCCN=C(N)N)C(=O)N[C@@H](Cc1ccccc1)C(=O)N[C@@H](CCN)C(N)=O [H-Dmt-D-Arg-Phe-A2bu-NH2] | 6130 nM | 0.803 | 47.5
3 | Cc1cc(O)ccc1C[C@H](N)C(=O)N[C@H](CCCN=C(N)N)C(=O)N[C@@H](Cc1ccccc1)C(=O)N[C@@H](CCCCN)C(N)=O [H-Hmt-D-Arg-Phe-Lys-NH2 II] | > 10000 nM and 2320 nM |  | 
4 | NCCCC[C@H](NC(=O)[C@H](Cc1ccccc1)NC(=O)[C@@H](CCCN=C(N)N)NC(=O)[C@@H](N)Cc1ccc(O)cc1)C(N)=O [NSC_122222] |  | 1.69 | 4230
5 | CN[C@@H](Cc1c(C)cc(O)cc1C)C(=O)N[C@H](CCCN=C(N)N)C(=O)N[C@@H](Cc1ccccc1)C(=O)N[C@@H](CCCCN)C(N)=O [Tmt-D-Arg-Phe-Lys-NH2] | 543 nM | 0.192 | 46.1
